# Literature values, collected in patent EP0656010B1, “Use of peptides causing a immune response for the preparation of medicaments to induce the suppression of the immune reaction” (priority 1992, dated 2001).
# Tested on: sujets infectés par les VIH-1
# Conditions: subjects infected with HIV-1
row,Sequence,réponse immunitaire cellulaire dirigée contre le peptide
1,GGEFFYCNSTQL,réponse immunitaire cellulaire
2,SVEINCTRPNNNTRKSI,réponse immunitaire cellulaire
